In PubChem BioAssay (NCI) one finds TGI and GI50 data, which are given here for eight molecules.

Common to all, as to assay: DTP human tumour cell line panel, 48 h
Assay [1] has as its system OVCAR-8 ovarian.
In assay [2] the test system is PC-3 prostate.
Assay [3] relates to RPMI-8226 leukemia.
The subject of assay [4] is NCI-H460 lung.
In assay [5] the test system is SF-295 CNS.
Assay [6] relates to SK-MEL-2 melanoma.
Assay [7] deals with HL-60(TB) leukemia.
Assay [8] deals with OVCAR-3 ovarian.
Assay [9] has as its system HT29 colon.
Assay [10] has as its system IGROV1 ovarian.

Each structure is given as a SMILES string.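 Assay format: 96-well plates, 48-hour exposure. GI50 marks 50% less growth. The concentration for full growth arrest is given as TGI.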 Where only a bound is given, the exact number is not on record here.

In general, TGI refers to the concentration giving total growth inhibition. Turning to `COc1ccc(-c2cc(-c3cc(C)cc(Br)c3O)no2)cc1`, the TGI in [1] is over 100 µM; in assay [2], 33.5 µM; in assay [3], over 100 µM; in [4], 44.5 µM; in assay [5], 14.4 µM; in assay [6], 75 µM. For the same molecule, the concentration for total growth inhibition (TGI) was over 100 µM in assay [7], 23.9 µM in assay [8], over 100 µM in assay [9] and over 100 µM in [10].

For orientation: GI50 means the concentration giving 50% growth inhibition. Turning to `COc1ccc(-c2[nH]c3ccc(OC)cc3c2/C=C(\C#N)S(=O)(=O)c2ccccc2)cc1`, the GI50 in assay [1] was 2.97 µM; in assay [2], 0.533 µM; in assay [3] it was 1.28 µM; in assay [4], 0.659 µM; in assay [5], 0.709 µM; in assay [6] it was 6.42 µM. For the same molecule, the GI50 was 0.812 µM in assay [7], 0.356 µM in assay [8], 0.435 µM in assay [9] and 3.76 µM in assay [10]. Moreover, the TGI in assay [1] is over 35.2 µM; in assay [2], 23.6 µM; in assay [3], 6.64 µM; in assay [4], over 26 µM; in [5], over 23.9 µM; in assay [6], over 69.3 µM. For the same molecule, the TGI in assay [8] is 1.62 µM; in [9], over 32.2 µM; in [10] it was over 45.9 µM.

For the molecule `CN1CCN(CCCNc2nc3ccc(Oc4ccc(NC(=O)Nc5cc(C(F)(F)F)ccc5F)cc4)cc3[nH]2)CC1`, the GI50 in [1] is 5.27 µM; in [2] it was 4.82 µM; in assay [3] it was 5.88 µM; in assay [4], 4.37 µM; in [5], 3.67 µM; in [6], 4.64 µM. In addition, the GI50 is 5.2 µM in [7], 4.49 µM in assay [8], 4.09 µM in [9] and 9.62 µM in [10]. Further, the TGI in assay [1] is 13.5 µM; in assay [2], 10.6 µM; in assay [3] it was 14 µM; in [4] it was 8.4 µM; in assay [5], 7.98 µM; in assay [6], 8.66 µM. Also, the TGI was 10.3 µM in assay [7], 9.65 µM in [8], 7.93 µM in assay [9] and over 23.9 µM in assay [10].

For `COc1ccc(C(=O)c2cc(OC)c(OC)c(OC)c2)cc1/C=C/C(=O)c1ccc(F)cc1`, the GI50 in [1] is 3.7 µM; in assay [2], 3.3 µM; in assay [3], 2.32 µM; in assay [4], 16 µM; in [5], 7.21 µM; in assay [6], 9.89 µM. In addition, the GI50 in [7] was 4.8 µM; in assay [8], 4.83 µM; in assay [9] it was 2.44 µM; in assay [10], 2.59 µM. For the same molecule, the TGI in assay [1] came out at 37.8 µM; in assay [2] it was 13.7 µM; in assay [3], 6.98 µM; in assay [4], 52.7 µM; in [5], 37.3 µM; in assay [6], 38.2 µM. Also, the concentration for total growth inhibition (TGI) in assay [7] was over 100 µM; in [8], 15.5 µM; in assay [9], 5.63 µM; in [10], 6.73 µM.

For the molecule `C=C1C(=O)O[C@H]2[C@H]1CC/C(COC(=O)NCCCCNC(=O)OC/C1=C/CC[C@@]3(C)O[C@H]3[C@H]3OC(=O)C(=C)[C@@H]3CC1)=C\CC[C@@]1(C)O[C@@H]21`, the GI50 was 2.18 µM in assay [1]; 2.55 µM in [2]; 0.547 µM in assay [3]; 4.61 µM in assay [4]; 13 µM in [5]; 1.77 µM in assay [6]. Further, the GI50 in [7] is 0.256 µM; in [8] it was 0.693 µM; in assay [9] it was 0.605 µM; in [10] it was 3.32 µM. For the same molecule, the TGI amounted to 8.26 µM in assay [1]; 8.05 µM in assay [2]; 3.08 µM in assay [3]; 18 µM in assay [4]; 27.4 µM in assay [5]; 4.89 µM in [6]. The TGI in assay [7] came out at 1.08 µM; in assay [8] it was 2.01 µM; in assay [9], 2.05 µM; in assay [10] it was 12.4 µM.

Take `CCOC(=O)C1CCN(S(=O)(=O)/N=C2/NC(=O)NC2=C(Cl)Cl)CC1`: the GI50 is 3.76 µM in [1]; 0.621 µM in assay [2]; 0.327 µM in assay [3]; 3.19 µM in assay [4]; 3.56 µM in assay [5]; 2.37 µM in [6]. For the same molecule, the GI50 is 1.74 µM in assay [7], 1.77 µM in assay [8], 2.2 µM in [9] and 1.91 µM in assay [10]. The TGI in assay [1] was 19.9 µM; in assay [2] it was 2.58 µM; in [3] it was 10.1 µM; in assay [4], 11.4 µM; in [5], 14.1 µM; in [6], 7.5 µM. Further, the TGI worked out at 4.34 µM in assay [7], 3.29 µM in [8], 4.3 µM in [9] and 3.93 µM in assay [10].

As to `COC(=O)Nc1nc2ccc(C3(c4ccc(F)cc4)OCCO3)cc2[nH]1`, the GI50 in assay [1] was 0.527 µM; in assay [2], 0.341 µM; in assay [3], 0.427 µM; in assay [4], 0.344 µM; in [5], 0.272 µM; in assay [6], 0.427 µM. For the same molecule, the concentration for 50% growth inhibition (GI50) in [7] was 0.242 µM; in [8], 0.301 µM; in assay [9], 0.317 µM; in [10], 1.29 µM. Besides, the TGI in [1] is over 100 µM; in assay [2], over 100 µM; in assay [3], over 100 µM; in assay [4], over 36.8 µM; in assay [5], over 100 µM; in [6], over 100 µM. In addition, the TGI in [7] is 0.765 µM; in assay [9] it was over 100 µM; in [10], over 100 µM.

With `CC/C=C\C[C@H](O)C/C=C1/C(=O)C=C[C@@H]1C/C=C\CCCC(=O)OC`, the GI50 is 2.61 µM in [1]; 2.7 µM in assay [2]; 1 µM in [3]; 3.26 µM in assay [4]; 2.26 µM in assay [5]; 1.84 µM in assay [6]. The GI50 in [7] is 1.74 µM; in assay [8] it was 0.692 µM; in assay [9] it was 1.61 µM; in [10], 3.05 µM. For the same molecule, the TGI in [1] was 11.1 µM; in assay [2], 7.29 µM; in [3] it was 9.21 µM; in assay [4], 11.2 µM; in assay [5], 5.58 µM; in assay [6], 4.2 µM. Further, the concentration for total growth inhibition (TGI) was determined as 7.07 µM in assay [7], 2.13 µM in assay [8], 3.8 µM in assay [9] and 8.71 µM in assay [10].
